33 compounds from US8257931B2 (President and Fellows of Harvard College, priority 2005, dated 2012) can be followed below.

For one assay, the system named is A549 lung cancer cells. Put plainly: A549 proliferation, sulforhodamine B (SRB) assay. The format is cell-based, human. To be noted: sulforhodamine B assay, triplicate. On the procedure:
FIG. 28 is a graph showing the results of a cell proliferation assay. A549 cells, which are human lung cancer cells, are grown in plates for five days in medium containing 5% FCS and compound. The number of cells is quantified by staining with sulforhodamine B.
For orientation: In SRB staining, fixed cells bind dye roughly in proportion to their protein.

The next assay deals with T1, eIF4E/eIF4G interaction (Mus musculus, UniProt P63073).
T1 construct: made in house; host or cells: E. coli
Kind of assay: Fluorescence polarization assay: binding of fluorescein-labeled eIF4G peptide to eIF4E. Set-up: species or system murine. The conditions noted are these: triplicate, SD<±10%; for IC50: read-out: IC50 (μM) (4E/4G FP). On the procedure: We adapted this assay to a microwell plate format and used it to screen the 16,000 compound Chembridge DiverSet E library. […] For screening and subsequent peptide binding assays measurements of fluorescence polarization were made using an LJL Analyst plate reader. For the screening assay a solution containing approximately 5 μM meIF4E, 60 nM labeled peptide, 0.05% bovine γ-globulin, and 2 mM DTT in a buffer composed of 50 mM sodium phosphate and 50 mM potassium chloride at pH 6.5 was used. […] The curve fitting for estimation of binding constants used equations derived by Roehrl et al.^22 Measurements of fluorescence polarization and anisotropy were made in black 384-well plates (Corning) using an Analyst plate reader (LJL Biosystems) Compounds were transferred to plates during the screening using a custom-built Seiko pin transfer robot at the Institute for Chemistry and Cell Biology (ICCB) at Harvard Medical School.
A fluorescence polarization (FP) assay was developed to measure binding of a peptide containing the conserved eIF4E-binding motif to eIF4E.
The assay was adapted to a microwell plate format and used to screen a number of libraries comprised of small molecule libraries for potential eIF4E/eIF4G interaction inhibitors.
On the technique in general: In fluorescence polarisation assays a small probe gives low polarisation when free and higher when bound to something large.

The mark [1] stands for this setting: Homo sapiens, A549, Table 1 of b280.
[2] abbreviates: Homo sapiens, A549, Table 1 of b347.

Several values for one entry are separate records, joined by “and”; a condition that tells them apart may be missing. Equal entries are not always repeated. Where two headings read alike, the source gives them in different places. Bounds are passed on as bounds.

T1 sequence (P63073 whole entry): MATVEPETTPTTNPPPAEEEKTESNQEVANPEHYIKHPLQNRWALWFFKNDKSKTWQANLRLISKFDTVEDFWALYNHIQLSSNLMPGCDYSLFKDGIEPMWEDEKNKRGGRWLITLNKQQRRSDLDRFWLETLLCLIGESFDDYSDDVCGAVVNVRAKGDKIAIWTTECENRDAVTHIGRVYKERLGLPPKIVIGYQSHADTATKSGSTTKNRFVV

The GI50 is the concentration that inhibits growth by half. In the assay with A549 lung cancer cells (setting [1]), `O=C(O)/C(Cc1ccccc1[N+](=O)[O-])=N/Nc1nc(-c2ccc(-c3ccccc3)cc2)cs1` had a GI50 of 4 µM.
In turn, `O=C(O)/C(Cc1ccccc1[N+](=O)[O-])=N/Nc1nc(-c2ccc3ccccc3c2)cs1` gave a GI50 in the assay with A549 lung cancer cells (setting [1]) of 6 µM. For the same compound, the IC50 at eIF4E/eIF4G interaction (Table 1 of b280) was found to be 215 µM.
The corresponding values for `O=C(O)/C(Cc1ccccc1[N+](=O)[O-])=N/Nc1nc(-c2ccc(N3CCCC3)cc2)cs1` are above 20 µM and above 600 µM.
In the case of `O=C(O)/C(Cc1ccccc1)=N/Nc1nc(-c2ccc3c(c2)OCCCO3)cs1`, the IC50 on eIF4E/eIF4G interaction (Table 1 of b280) was determined as 400 µM.
The same measure, in the same setting: the same measure for `O=C(O)/C(Cc1ccccc1)=N/Nc1nc(-c2ccc(N3CCOCC3)cc2)cs1`: above 125 µM; for `O=C(O)/C(=C\c1ccccc1)NCc1nc(-c2ccccc2)cs1`: above 600 µM.
For the compound `O=C(O)C(Cc1ccccc1[N+](=O)[O-])=NNc1nc(-c2ccc(/N=N/c3ccccc3)cc2)cs1` (mixture of isomers), the 50% growth inhibitory concentration (GI50) in the assay with A549 lung cancer cells (setting [1]) amounted to 4 µM. The IC50 at eIF4E/eIF4G interaction (Table 1 of b280) was found to be 150 µM.
Take `O=C(O)C(Cc1ccccc1)=NNc1nc(-c2ccc3c(c2)OCCO3)cs1` (mixture of isomers): at eIF4E/eIF4G interaction (Table 1 of b280), the IC50 was determined as 170 µM.
On to `O=C(O)C(Cc1ccccc1)=NNc1nc(-c2ccc(C3CCCCC3)cc2)cs1` (mixture of isomers), for which the IC50 on eIF4E/eIF4G interaction (Table 1 of b280) was determined as 100 µM.
As for `O=C(O)/C(Cc1ccccc1[N+](=O)[O-])=N/Nc1nc(-c2ccc(Cl)c(Cl)c2)cs1` [E-1, 2-{[4-(3,4-Dichloro-phenyl)-thiazol-2-yl]-hydrazono}-3-(2-nitro-phenyl)-propionic acid], the GI50 in the assay on A549 lung cancer cells (Table 1) is 3 µM; in the assay with A549 lung cancer cells (Table 1, listed as E-4a), 3 µM.
Take `O=C(O)/C(Cc1ccccc1[N+](=O)[O-])=N/Nc1nc(-c2ccccc2)cs1` [E-2]: the GI50 in the assay with A549 lung cancer cells (Table 1) was found to be 7 µM; in the assay with A549 lung cancer cells (Table 1, listed as E-4r), 7 µM.
Consider `O=C(O)/C(Cc1ccccc1)=N/Nc1nc(-c2ccc(Cl)c(Cl)c2)cs1` [E-3, 2-{[4-(3,4-Dichloro-phenyl)thiazol-2-yl]-hydrazono}-3-phenyl-propionic acid], for which the GI50 was found to be 6.5 µM in the assay on A549 lung cancer cells (Table 1) and 6.5 µM with A549 lung cancer cells (Table 1, listed as E-4s). For the same compound, the IC50 on eIF4E/eIF4G interaction (Table 1 of b280) and on eIF4E/eIF4G interaction (Table 1 of b347) was 355 µM in each case.
As for `O=C(O)/C(Cc1ccccc1)=N/Nc1nc(-c2ccccc2)cs1` [E-4, 3-Phenyl-2-[(4-phenyl-thiazol-2-yl)-hydrazono]-propionic acid], the GI50 with A549 lung cancer cells (Table 1) is 14 µM and 17 µM; with A549 lung cancer cells (Table 1, listed as E-4c), 16 µM. Further, the IC50 at eIF4E/eIF4G interaction (Table 1 of b280) and at eIF4E/eIF4G interaction (Table 1 of b347) was above 600 µM each time.
Turning to `O=C(O)/C(=N/Nc1nc(-c2ccccc2)cs1)c1ccccc1` [E-6, Phenyl-[(4-phenyl-thiazol-2-yl)-hydrazono]-acetic acid], the GI50 in the assay with A549 lung cancer cells (Table 1) came to 10 µM; in the assay with A549 lung cancer cells (Table 1, listed as E-4h), 10 µM.
For the compound `Cc1sc(N/N=C(\Cc2ccccc2)C(=O)O)nc1-c1ccccc1` [E-9, 2-[(5-Methyl-4-phenyl-thiazol-2-yl)-hydrazono]-3-phenyl-propionic acid], the GI50 worked out at 6 µM with A549 lung cancer cells (Table 1) and 6 µM in the assay on A549 lung cancer cells (Table 1, listed as E-4n). Moreover, the IC50 on eIF4E/eIF4G interaction (Table 1 of b280) is 350 µM; on eIF4E/eIF4G interaction (Table 1 of b347), above 300 µM.
Take `O=C(O)/C(Cc1ccccc1)=N/Nc1nc(-c2ccccc2)c(-c2ccccc2)s1` [E-10, 2-[(4,5-Diphenyl-thiazol-2-yl)-hydrazono]-3-phenyl-propionic acid]: the GI50 turned out to be 1.5 µM with A549 lung cancer cells (Table 1) and 1.5 µM with A549 lung cancer cells (Table 1, listed as E-4o). Further, the IC50 on eIF4E/eIF4G interaction (Table 1 of b280) is 90 µM; at eIF4E/eIF4G interaction (Table 1 of b347), 100 µM and 88 µM.
For the compound `O=C(O)/C(Cc1ccccc1)=N/Nc1nc2ccccc2s1` [E-11, 2-(Benzothiazol-2-yl-hydrazono)-3-phenyl-propionic acid], the GI50 with A549 lung cancer cells (Table 1) stood at 4 µM; in the assay on A549 lung cancer cells (Table 1, listed as E-4p) it was 4 µM.
Regarding `COC(=O)/C(Cc1ccccc1)=N/Nc1nc(-c2ccccc2)cs1` [E-13, 3-Phenyl-2-[(4-phenyl-thiazol-2-yl)-hydrazono]-propionic acid methyl ester], the concentration for 50% growth inhibition (GI50) was determined as 7 µM in the assay with A549 lung cancer cells (Table 1) and 7 µM in the assay on A549 lung cancer cells (Table 1, listed as E-4f).
In turn, `O=C(O)C(Cc1ccccc1)=NNc1nnc(-c2ccccc2)s1` [E-16, 3-Phenyl-2-[(5-phenyl-[1,3,4]thiadiazol-2-yl)-hydrazono]-propionic acid] displayed a GI50 in the assay with A549 lung cancer cells (setting [2]) of 9 µM. Also, the IC50 on eIF4E/eIF4G interaction (Table 1 of b347) was above 600 µM.
The corresponding values for `O=C(O)/C(Cc1ccccc1)=N/Nc1ccc(-c2ccccc2)nn1` [E-17, 3-Phenyl-2-[(6-phenyl-pyridazin-3-yl)-hydrazono]-propionic acid] are 7.5 µM and above 600 µM.
As to `NC(=O)/C(Cc1ccccc1)=N/Nc1nc(-c2ccccc2)cs1` [E-21, 3-Phenyl-2-[(4-phenyl-thiazol-2-yl)-hydrazono]-propionamide], the IC50 at eIF4E/eIF4G interaction (Table 1 of b347) was above 600 µM.
As to `O=C(O)/C(Cc1ccccc1[N+](=O)[O-])=N/Nc1nc(-c2ccc(Cl)c(Cl)c2)cs1` [Z-1, 2-{[4-(3,4-Dichloro-phenyl)-thiazol-2-yl]-hydrazono}-3-(2-nitro-phenyl)-propionic acid], the values for the GI50 in the assay on A549 lung cancer cells (setting [1]) and with A549 lung cancer cells (setting [2]) were 6 µM and 5 ± 1 µM, respectively.
With `O=C(O)/C(Cc1ccccc1[N+](=O)[O-])=N/Nc1nc(-c2ccccc2)cs1` [Z-2], the concentration for 50% growth inhibition (GI50) in the assay on A549 lung cancer cells (Table 1) was above 20 µM; with A549 lung cancer cells (Table 1, listed as Z-4r), above 20 µM. In addition, the IC50 on eIF4E/eIF4G interaction (Table 1 of b280) and on eIF4E/eIF4G interaction (Table 1 of b347) was above 600 µM each time.
On to `O=C(O)/C(Cc1ccccc1)=N/Nc1nc(-c2ccc(Cl)c(Cl)c2)cs1` [Z-3, 2-{[4-(3,4-Dichloro-phenyl)thiazol-2-yl]-hydrazono}-3-phenyl-propionic acid], for which the 50% growth inhibitory concentration (GI50) worked out at 14 µM in the assay with A549 lung cancer cells (Table 1) and 14 µM with A549 lung cancer cells (Table 1, listed as Z-4s). The IC50 on eIF4E/eIF4G interaction (Table 1 of b280) was found to be 300 µM.
Turning to `O=C(O)/C(Cc1ccccc1)=N/Nc1nc(-c2ccccc2)cs1` [Z-4, 3-Phenyl-2-[(4-phenyl-thiazol-2-yl)-hydrazono]-propionic acid], the GI50 is 17 µM in the assay with A549 lung cancer cells (setting [1]) and above 20 µM in the assay with A549 lung cancer cells (setting [2]). The IC50 on eIF4E/eIF4G interaction (Table 1 of b280) and on eIF4E/eIF4G interaction (Table 1 of b347) was 240 µM throughout.
As to `C(/Cc1ccccc1)=N/Nc1nc(-c2ccccc2)cs1` [Z-5, N-Phenethylidene-N′-(4-phenyl-thiazol-2-yl)-hydrazine], the GI50 in the assay on A549 lung cancer cells (setting [1]) and with A549 lung cancer cells (setting [2]) was 7 µM in each case. Also, the IC50 on eIF4E/eIF4G interaction (Table 1 of b280) and at eIF4E/eIF4G interaction (Table 1 of b347) was above 600 µM in each case.
With `O=C(NC(Cc1ccccc1)C(=O)O)c1nc(-c2ccccc2)cs1` (stereo not shown) [compound 18, 3-Phenyl-2-[(4-phenyl-thiazole-2-carbonyl)-amino]-propionic acid], the IC50 at eIF4E/eIF4G interaction (Table 1 of b347) was above 600 µM.
For `O=C(O)C(Cc1ccccc1)C(=O)Nc1nc(-c2ccccc2)cs1` (stereo not shown) [compound 19, 2-Benzyl-N-(4-phenyl-thiazol-2-yl)-malonamic acid], the IC50 at eIF4E/eIF4G interaction (Table 1 of b347) was above 600 µM.
For the compound `O=C(O)C(Cc1ccccc1)NCc1nc(-c2ccccc2)cs1` (stereo not shown) [compound 20, 3-Phenyl-2-[(4-phenyl-thiazol-2-ylmethyl)-amino]-propionic acid], at eIF4E/eIF4G interaction (Table 1 of b347), the “IC50 (μM) (4E/4G FP)” value is recorded as “insoluble”.
In the case of `O=C(O)C(CNc1nc(-c2ccccc2)cs1)Cc1ccccc1` (stereo not shown) [compound 22, 2-Benzyl-3-(4-phenyl-thiazol-2-ylamino)-propionic acid], at eIF4E/eIF4G interaction (Table 1 of b347), the IC50 is above 600 µM.
As for `O=C(NC(Cc1ccccc1)C(=O)O)c1nc(-c2ccccc2)cs1` (stereo not shown) [drawing 69], the IC50 at eIF4E/eIF4G interaction (Table 1 of b280) was above 600 µM.
Regarding `O=C(O)C(Cc1ccccc1)C(=O)Nc1nc(-c2ccccc2)cs1` (stereo not shown) [drawing 70], the IC50 at eIF4E/eIF4G interaction (Table 1 of b280) was above 600 µM.
For `O=C(O)C(Cc1ccccc1)NCc1nc(-c2ccccc2)cs1` (stereo not shown) [drawing 71], the “IC50 (μM) (4E/4G FP)” value on eIF4E/eIF4G interaction (Table 1 of b280) is listed as “insoluble”.
